From PubChem BioAssay AID850 (SRMLSC, 2007) come the findings set out here.

Assay [1] concerns Saccharomyces cerevisiae growth inhibition, permissive control. The assay can be described thus: concentration-response yeast growth inhibition under permissive conditions, counter-assay for yeast lifespan-shortening chemical project (AID 850).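 Further: growth read as optical density after one day of incubation.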
Assay in assay [2]: as above
Particulars: Saccharomyces cerevisiae growth inhibition, permissive control, measured here: maximum growth inhibition, stronger effect = higher value.

The structures appear in SMILES notation. Activity calls are given as the source filed them. How the calls were made is not given here. Bounds are passed on as bounds.

In general, IC50 refers to the point on the concentration scale where inhibition reaches its midpoint. The inhibition is the change of the read-out against control, counted positive when it falls. On to `CC(C)(C)c1nnc(N/N=C/c2cc(Br)ccc2O)n(N)c1=O`, for which the IC50 in assay [1] was 49.9 µM. Besides, the inhibition in assay [2] (at 50 µM) was 50.9%.

Regarding `Oc1c(C(Nc2nc3ccccc3s2)c2ccco2)ccc2cccnc12` (configuration not stated), in assay [1], the IC50 is > 100 µM (inactive). Moreover, the inhibition in assay [2] (at 50 µM) came to 23.2%.

As for `Cc1sc2ncnc(N/N=C/c3ccccc3O)c2c1C`, the IC50 in assay [1] is 32.2 µM. In assay [2] (at 50 µM), the inhibition worked out at 94.2%.

Take `CCOc1ccc(-c2[nH]ncc2Oc2cccc(OC)c2)c(O)c1`: the IC50 in assay [1] was > 100 µM (inactive). The inhibition in assay [2] (at 50 µM) stood at 28.1%.

As for `CC1(C)C[C@H]2C=C(C=O)[C@]3(C=O)C[C@]3(C)[C@H]2C1`, the IC50 in assay [1] was 4.38 µM. In addition, in assay [2] (at 50 µM), the inhibition was determined as 100%.

Regarding `Cc1ccc(NC(=O)CSC2=C(C#N)C(c3ccc4c(c3)OCO4)C3=C(CCCC3=O)N2)c(C)c1` (configuration not stated), the IC50 in assay [1] was > 100 µM (inactive). For the same compound, the inhibition in assay [2] (at 0.195 µM) worked out at 8.26%.

With `CCOc1cc(/C=N/Nc2ccccc2Cl)ccc1OCC(=O)O`, in assay [1], the IC50 is 9.2 µM. The inhibition in assay [2] (at 50 µM) is 99%.

Turning to `Cc1cc(C(=O)COC(=O)c2ccc[nH]c2=O)c(C)n1-c1ccc(Br)cc1`, in assay [1], the IC50 was > 100 µM (inactive). The inhibition in assay [2] (at 50 µM) was 4.13%.

For the compound `O=C(Oc1c(Cl)cc(Cl)c2cccnc12)c1cccs1`, the IC50 in assay [1] is 12.7 µM. In addition, the inhibition in assay [2] is 100%.

On to `S=C1SCN(Cc2ccccn2)CN1Cc1ccco1`, for which the IC50 in assay [1] was 43.4 µM. Also, in assay [2] (at 50 µM), the inhibition was found to be 55.7%.

With `COc1ccc(C(=O)/C=C/N2CCCCC2)cc1OC`, the IC50 in assay [1] is 29.4 µM. The inhibition in assay [2] (at 50 µM) was 91.2%.

On to `CC(C)c1ccc2c(c1)C1(NN=C(c3ccccc3)S1)C(=O)N2` (configuration not stated), for which, in assay [1], the IC50 was 49.5 µM. In addition, in assay [2] (at 50 µM), the inhibition was found to be 49.5%.

As to `O=c1[nH]c2ccccc2c2nc3ccccn3c12`, in assay [1], the IC50 is > 100 µM (inactive). In assay [2] (at 25 µM), the inhibition was 18.1%.

Consider `Cc1nn(-c2cccc(C(F)(F)F)c2)c(Cl)c1/C=N/Nc1cccc(C(=O)O)c1`, for which the IC50 in assay [1] is 41.2 µM. The inhibition in assay [2] (at 50 µM) came to 81.6%.

For `Oc1c(Br)cc(Br)cc1Oc1ccc(Br)cc1Br`, in assay [1], the IC50 is > 100 µM (inactive). Further, the inhibition in assay [2] (at 3.125 µM) worked out at 4.84%.

For the compound `O=[N+]([O-])c1ccc(N/N=C/c2ccc[nH]2)cc1`, the IC50 in assay [1] is > 100 µM (inactive). The inhibition in assay [2] (at 50 µM) was found to be 5.41%.

As for `COc1ccc2c(c1)[nH]c1c(Cl)ncnc12`, in assay [1], the IC50 is > 100 µM (inactive). The inhibition in assay [2] (at 0.195 µM) came to 21.3%.

Regarding `CN(C)CCNC=C(C(=O)Nc1ccc(Cl)cc1Cl)C(=O)Nc1ccc(Cl)cc1Cl`, the IC50 in assay [1] is 18.6 µM. Besides, the inhibition in assay [2] (at 25 µM) came out at 101%.

Turning to `Cc1ccccc1OCCCN1C(=O)C(=O)c2cccc(C)c21`, the IC50 in assay [1] was > 100 µM (inactive). In assay [2] (at 25 µM), the inhibition was determined as 24.9%.

With `O=C(c1ccccc1)c1ccc2nc(N3CCCCC3)c3nncn3c2c1`, the IC50 in assay [1] is > 100 µM (inactive). Moreover, the inhibition in assay [2] (at 0.195 µM) stood at 14.9%.

Regarding `Oc1ccc(COCc2ccccc2)c2cccnc12`, the IC50 in assay [1] is 6.07 µM. For the same compound, the inhibition in assay [2] (at 50 µM) was determined as 99.4%.

Regarding `Cn1c(-c2ccco2)nc2cc3ccccc3cc21`, the IC50 in assay [1] is 49.4 µM. Further, in assay [2] (at 50 µM), the inhibition amounted to 52.4%.

For `Cc1ccc(/C=C/C(=O)c2ccccc(=O)c2O)cc1C`, in assay [1], the IC50 is 4.5 µM. In addition, the inhibition in assay [2] (at 25 µM) was determined as 98.9%.

On to `Fc1ccc2nc3[nH]c4ccccc4c3nc2c1`, for which the IC50 in assay [1] was > 100 µM (inactive). Moreover, the inhibition in assay [2] (at 50 µM) came to 20.7%.

`CCCCS(=O)(=O)/C=C\C=C/S(=O)(=O)CCCC`: the IC50 in assay [1] was > 100 µM (inactive). In addition, the inhibition in assay [2] (at 6.25 µM) was determined as 21.2%.

For `COc1cc(OC)c(C2CC(=O)N3CN(C)CSC3=C2C#N)cc1OC` (configuration not stated), the IC50 in assay [1] is > 100 µM (inactive). In addition, in assay [2] (at 0.781 µM), the inhibition came to 11%.

Turning to `O=C(Nc1nc(-c2ccccn2)cs1)c1ccc(Br)s1`, the IC50 in assay [1] was 5.55 µM. The inhibition in assay [2] (at 12.5 µM) is 99.4%.

Take `O=C(CSc1cccc[n+]1[O-])c1cc2ccccc2o1`: the IC50 in assay [1] was 3.68 µM. For the same compound, the inhibition in assay [2] (at 50 µM) came to 99.2%.

Consider `CCOc1ccc(N/N=C(/C#N)C(N)=O)cc1`, for which the half-maximal inhibitory concentration (IC50) in assay [1] is 11 µM. Also, the inhibition in assay [2] (at 50 µM) is 87.7%.

On to `Cc1ccc2nc(/C(C#N)=C\c3ccc([N+](=O)[O-])o3)[nH]c2c1`, for which the IC50 in assay [1] is 9.15 µM. The inhibition in assay [2] (at 50 µM) came to 99.4%.

Turning to `Cc1nc2cc3ccccc3cc2c(=O)[nH]1`, the IC50 in assay [1] was > 100 µM (inactive). In addition, the inhibition in assay [2] (at 0.781 µM) was found to be 13.9%.

With `Cc1ccc(C(=O)OCn2ncc(Cl)c(Cl)c2=O)cc1`, in assay [1], the IC50 is 36.4 µM. Further, the inhibition in assay [2] (at 50 µM) was found to be 85.2%.

Regarding `CC(C)C(=O)NC(c1ccccc1)c1cc([N+](=O)[O-])c2cccnc2c1O` (configuration not stated), the IC50 in assay [1] is 29.6 µM. Besides, the inhibition in assay [2] (at 50 µM) worked out at 93.4%.

Regarding `c1ccc(-c2ccc(C(c3ccccc3)n3ccnc3)cc2)cc1` (configuration not stated), the IC50 in assay [1] is 0.793 µM. For the same compound, the inhibition in assay [2] (at 3.125 µM) is 94.4%.

Turning to `Cc1cc(C)c2c(=O)n(CC(=O)N3CCC(Cc4ccccc4)CC3)sc2n1`, the IC50 in assay [1] was > 100 µM (inactive). In assay [2] (at 0.391 µM), the inhibition is 6.81%.

As to `O=C(O)c1ccccc1Nc1ccc([N+](=O)[O-])cc1`, in assay [1], the IC50 is 14.6 µM. Moreover, the inhibition in assay [2] (at 50 µM) worked out at 98%.

Regarding `Oc1c(CN2CCN(c3ccc(F)cc3)CC2)cc(Cl)c2cccnc12`, the IC50 in assay [1] was 12.2 µM. Besides, the inhibition in assay [2] (at 50 µM) worked out at 100%.

On to `CCOC(=O)C1=Nc2ccccc2C1=[N+]=[N-]`, for which the concentration for half-maximal inhibition (IC50) in assay [1] was 5.45 µM. Also, the inhibition in assay [2] (at 50 µM) was found to be 99.2%.

As for `CCN1CCN(c2ncnc3c2sc(=S)n3-c2ccccc2)CC1`, in assay [1], the IC50 was > 100 µM (inactive). In assay [2] (at 0.195 µM), the inhibition is 15.6%.

Take `Cn1c(N2CCOCC2)c(/C=N/OC(=O)c2ccc(F)cc2)c2ccccc21`: the IC50 in assay [1] is > 100 µM (inactive). Also, the inhibition in assay [2] (at 50 µM) was found to be 19.1%.

For `O=C(O)c1ccc(N(c2ccccc2)c2ccccc2)cc1`, the IC50 in assay [1] was > 100 µM (inactive). The inhibition in assay [2] (at 0.195 µM) was found to be 10.2%.

`Cc1cccc(C(=O)Oc2csc(=S)n2C(=O)c2cccc(C)c2)c1`: the IC50 in assay [1] is 47.8 µM. Also, the inhibition in assay [2] (at 50 µM) amounted to 55.6%.

`Nc1c(Cl)ncnc1N/N=C/c1ccccn1`: the half-inhibitory concentration (IC50) in assay [1] was 8.45 µM. Moreover, the inhibition in assay [2] (at 50 µM) turned out to be 99.2%.

As for `Clc1ccc(COC(Cn2ccnc2)c2ccc(Cl)cc2Cl)cc1` (configuration not stated), the IC50 in assay [1] is 0.705 µM. The inhibition in assay [2] (at 50 µM) came to 100%.

With `Clc1ccc(CSC(Cn2ccnc2)c2ccc(Cl)cc2Cl)cc1` (configuration not stated), in assay [1], the IC50 was 0.365 µM. Moreover, the inhibition in assay [2] (at 50 µM) was 99.4%.

Regarding `O=C(Cc1ccccc1)NCCc1cn2ccsc2n1`, in assay [1], the IC50 was > 100 µM (inactive). Besides, the inhibition in assay [2] (at 0.391 µM) came to 26%.

Consider `c1ccc(-n2c(-c3ccco3)nnc2-c2ccco2)cc1`, for which the IC50 in assay [1] was > 100 µM (inactive). The inhibition in assay [2] (at 12.5 µM) is 22.7%.

Turning to `CCCCCC/C(C)=C1/SC(=S)NC1=O`, the IC50 in assay [1] is > 100 µM (inactive). Besides, in assay [2] (at 12.5 µM), the inhibition was found to be 15.5%.

In the case of `O=C(Nc1nnc(-c2ccc(F)cc2)o1)c1cc(Cl)sc1Cl`, the IC50 in assay [1] was 36.8 µM. Also, in assay [2] (at 50 µM), the inhibition was found to be 81.8%.

On to `CCC(=O)NC(c1ccc(C)cc1)c1cc([N+](=O)[O-])c2cccnc2c1O` (configuration not stated), for which the IC50 in assay [1] is 43.5 µM. Moreover, the inhibition in assay [2] (at 50 µM) stood at 60.6%.

Take `CN1C(=O)C(O)(CC(=O)c2ccccc2O)c2cc(Br)ccc21` (configuration not stated): the IC50 in assay [1] was > 100 µM (inactive). Also, in assay [2] (at 0.195 µM), the inhibition turned out to be 17.2%.
